Molecules are shown by their SMILES.

What all share (format): ADME, organism-based
What all share (parameters): dose 200 mg/kg, route oral
Conditions in all cases: in vivo

Data set [1] in a line: Drug excretion in Wistar rat urine treated with antroquinonol at 200 mg/kg, po administered via gavage measured after 24 hrs by HPLC-SPE-TT-NMR analysis.
Data set [2] in a line: Drug excretion in Wistar rat urine assessed as (E)-6-((1R,2R,6R)-2-Hydroxy-3,4-dimethoxy-6-methyl-5-oxocyclo-hex-3-enyl)-4-methylhex-3-enoic acid level at 200 mg/kg, po administered via gavage measured after 24 hrs by HPLC-SPE-TT-NMR analysis.
The nature of data set [3]: Drug excretion in Wistar rat urine assessed as (E)-6-((1R,2R ,6R)-2,5-Dihy droxy-4-methoxy-6-methyl-3-oxocyclo-hex-4-enyl)-4-methylhex-4-enoic acid level at 200 mg/kg, po administered via gavage measured after 24 hrs by HPLC-SPE-TT-NMR analysis.
The nature of data set [4]: Drug excretion in Wistar rat urine assessed as (E)-6-((1R,2R ,6R)-2,5-Dihy droxy-4-methoxy-6-methyl-3-oxocyclo-hex-4-enyl)-4-methylhex-3-enoic acid level at 200 mg/kg, po administered via gavage measured after 24 hrs by HPLC-SPE-TT-NMR analysis.
Data set [5] in a line: Drug excretion in Wistar rat urine assessed as (E)-6-((1R,2R,6R)-2-Hydroxy-3,4-dimethoxy-6-methyl-5-oxocyclo-hex-3-enyl)-4-methylhex-4-enoic acid level at 200 mg/kg, po administered via gavage measured after 24 hrs by HPLC-SPE-TT-NMR analysis.

Regarding `COC1=C(O)[C@H](C)[C@@H](CC/C(C)=C/CC(=O)O)[C@@H](O)C1=O`, in data set [1], the Drug excretion entry was “metabolite_detected”. Still for that read-out and setting: the result for `COC1=C(OC)[C@H](O)[C@H](C/C=C(\C)CCC(=O)O)[C@@H](C)C1=O` reads “metabolite_detected”. Same read-out and setting: then `COC1=C(OC)[C@H](O)[C@H](CC/C(C)=C/CC(=O)O)[C@@H](C)C1=O`, with “metabolite_detected”. As for `COC1=C(OC)[C@H](O)[C@H](C/C=C(\C)CC/C=C(\C)CCC=C(C)C)[C@@H](C)C1=O` [ANTROQUINONOL], the Drug excretion entry in data set [2], in data set [3], in data set [4] and in data set [5] was “metabolite_detected” throughout. For the compound `COC1=C(O)[C@H](C)[C@@H](C/C=C(\C)CCC(=O)O)[C@@H](O)C1=O`, the Drug excretion result in data set [1] was “metabolite_detected”.

Values taken from ChEMBL document CHEMBL3232861, “Metabolites of antroquinonol found in rat urine following oral administration” (J Nat Prod, 2014).
